From paper PMC10247784, “Physiological activation of human and mouse bitter taste receptors by bile acids” (Communications Biology, 2023)
“And” between values parts separate entries of the source, which are not always exact repeats. Identical values can stand only once. Values belong to the molecule of their own block, whether it stands above or below them.

Assays:
Type in all cases: cell-based
[1] = biological target: T1, human TAS2R46 (Homo sapiens, UniProt P59540); experiment: Calcium imaging assay (FLIPR), HEK293T-Gα16gust44 cells transfected with human TAS2R46; details: TAS2R46, positive control at 10 µM
T1 construct: expressed in transfected cells; host or cells: HEK293T-Gα16gust44
T1 sequence (P59540 1-309): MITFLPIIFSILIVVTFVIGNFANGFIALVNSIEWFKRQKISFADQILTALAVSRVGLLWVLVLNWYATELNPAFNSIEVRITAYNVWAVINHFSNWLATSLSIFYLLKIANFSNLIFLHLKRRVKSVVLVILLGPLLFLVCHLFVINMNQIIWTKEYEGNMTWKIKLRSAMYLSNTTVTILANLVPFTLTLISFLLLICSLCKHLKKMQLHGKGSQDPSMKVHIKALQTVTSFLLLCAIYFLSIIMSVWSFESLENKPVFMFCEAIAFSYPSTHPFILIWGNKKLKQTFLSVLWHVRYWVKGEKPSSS
Procedure: (§1) This set of bile acids was chosen because of their commercial availability in high purities, their diversity within the class of bile acids and their previous detection and quantitation in human blood. Stock solutions were prepared in DMSO.
(§2) As basal growth medium for the HEK293T-Gα16gust44 cell line[17],[59] served Dulbecco’s modified eagle medium (DMEM) (Thermo Fisher Scientific, Darmstadt, Germany) supplemented with 10 % fetal bovine serum (Sigma-Aldrich, Steinheim, Germany), 2 mM L-glutamine (Sigma-Aldrich, Steinheim, Germany), 100 units/ml penicillin (Sigma Aldrich, Steinheim, Germany) and 100 µg/ml streptomycin (Sigma Aldrich, Steinheim, Germany). Growth conditions were 37 °C, 5 % CO2 and saturated air-humidity[60].
(§3) HEK293T-Gα16gust44 cells were seeded on poly-D-lysine (10 µg/ml) coated 96-well plates to reach a confluence of 40-60 % the next day. For transient transfection 150 ng of plasmid DNA containing the receptor of interest and 0.3 µl lipofectamine 2000 (Thermo Fisher Scientific, Darmstadt, Germany) per well were used and transfection took place according to the manual of lipofectamine 2000. […] The empty vector DNA (mock) was transfected as negative control[14],[41].
(§4) Cells were loaded using the calcium-sensitive fluorescent dye Fluo-4-AM (Abcam, Cambridge, Great Britain) in the presence of 2.5 mM probenecid (Sigma-Aldrich, Steinheim, Germany) the day after transfection[13],[41]. 1 h after loading, cells were washed with C1 buffer using a BioTek Cell Washer, incubated in the dark for half an hour and washed again. For automated agonist application and measurement of fluorescence changes, a FLIPR^TETRA device (Molecular Devices, San José, United States) was used. Viability of cells was tested by application of 100 nM Somatostatin 14 (Bachem, Bubendorf, Switzerland)[42].
(§5) Measured data were negative control corrected by subtracting the signal of the mock-transfected cells and exported to Microsoft Excel using the FLIPR software ScreenWorks 4.2. In Microsoft Excel software, standardization of maximum fluorescence intensities to the basal fluorescence and normalization to the buffer-only control was done to calculate the relative fluorescence changes (ΔF/F).
(§6) Initial screening experiments performed in duplicate wells were confirmed by at least one replication and representative traces were selected for display. All dose-response relationships were determined by three independent experiments (biological replicates) performed in duplicates (technical replicates). Threshold concentrations, defined as lowest substance concentrations leading to statistically significant elevated fluorescence changes in receptor-transfected cells compared with empty vector-transfected cells, were determined using SigmaPlot with Student’s t-test to evaluate statistical significance (p < 0.01).

[2] = biological target: T2, human TAS2R39 (Homo sapiens, UniProt P59534); experiment: Calcium imaging assay (FLIPR), HEK293T-Gα16gust44 cells transfected with human TAS2R39; details: TAS2R39, positive control at 3 mM
T2 construct: expressed in transfected cells; host or cells: HEK293T-Gα16gust44
T2 sequence (P59534 1-338): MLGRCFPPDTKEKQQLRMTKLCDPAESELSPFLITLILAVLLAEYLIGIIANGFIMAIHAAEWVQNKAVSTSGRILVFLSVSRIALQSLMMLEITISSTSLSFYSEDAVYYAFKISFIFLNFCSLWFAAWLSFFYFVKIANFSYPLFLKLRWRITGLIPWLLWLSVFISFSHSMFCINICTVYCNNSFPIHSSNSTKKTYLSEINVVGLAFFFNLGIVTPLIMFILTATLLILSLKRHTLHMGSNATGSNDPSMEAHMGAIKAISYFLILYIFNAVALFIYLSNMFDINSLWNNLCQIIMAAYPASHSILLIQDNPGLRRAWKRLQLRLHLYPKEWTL
Procedure: as §1, §2, §3, §4, §5, §6

[3] = biological target: T3, human TAS2R4 (Homo sapiens, UniProt Q9NYW5); experiment: Calcium imaging assay (FLIPR), HEK293T-Gα16gust44 cells transfected with human TAS2R4; details: TAS2R4, positive control at 3 mM
T3 construct: expressed in transfected cells; host or cells: HEK293T-Gα16gust44
T3 sequence (Q9NYW5 1-299): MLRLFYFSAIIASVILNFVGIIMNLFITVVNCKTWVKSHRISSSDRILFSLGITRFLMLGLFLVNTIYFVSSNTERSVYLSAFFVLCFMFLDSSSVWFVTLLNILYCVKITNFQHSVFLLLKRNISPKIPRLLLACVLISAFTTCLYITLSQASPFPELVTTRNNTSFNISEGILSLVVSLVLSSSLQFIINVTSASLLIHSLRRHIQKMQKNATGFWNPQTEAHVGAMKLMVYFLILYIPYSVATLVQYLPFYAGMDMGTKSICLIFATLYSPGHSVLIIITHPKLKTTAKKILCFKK
Procedure: as §1, §2, §3, §4, §5, §6

[4] = biological target: T4, human TAS2R14 (Homo sapiens, UniProt Q9NYV8); experiment: Calcium imaging assay (FLIPR), HEK293T-Gα16gust44 cells transfected with human TAS2R14
T4 construct: expressed in transfected cells; host or cells: HEK293T-Gα16gust44
T4 sequence (Q9NYV8 1-317): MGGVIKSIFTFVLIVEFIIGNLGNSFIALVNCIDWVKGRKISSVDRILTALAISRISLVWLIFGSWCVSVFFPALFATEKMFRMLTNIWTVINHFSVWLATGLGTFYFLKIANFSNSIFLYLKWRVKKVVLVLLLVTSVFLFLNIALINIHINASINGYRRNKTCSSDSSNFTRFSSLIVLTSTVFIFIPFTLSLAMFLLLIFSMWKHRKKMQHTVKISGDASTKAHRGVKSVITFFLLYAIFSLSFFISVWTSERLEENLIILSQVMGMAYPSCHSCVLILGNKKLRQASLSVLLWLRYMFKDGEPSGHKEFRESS
Procedure: as §1, §2, §3, §4, §5, §6

[5] = biological target: T5, human TAS2R1 (Homo sapiens, UniProt Q9NYW7); experiment: Calcium imaging assay (FLIPR), HEK293T-Gα16gust44 cells transfected with human TAS2R1; details: TAS2R1, positive control at 1 mM
T5 construct: expressed in transfected cells; host or cells: HEK293T-Gα16gust44
T5 sequence (Q9NYW7 1-299): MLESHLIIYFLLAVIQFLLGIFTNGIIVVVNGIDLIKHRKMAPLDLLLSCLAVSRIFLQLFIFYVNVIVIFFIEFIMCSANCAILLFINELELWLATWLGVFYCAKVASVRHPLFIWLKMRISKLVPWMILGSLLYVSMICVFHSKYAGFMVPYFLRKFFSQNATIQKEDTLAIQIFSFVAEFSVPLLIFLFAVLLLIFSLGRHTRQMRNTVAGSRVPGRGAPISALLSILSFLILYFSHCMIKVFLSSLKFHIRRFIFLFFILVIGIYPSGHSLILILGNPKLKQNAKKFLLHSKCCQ
Procedure: as §1, §2, §3, §4, §5, §6

Compound: O=C1C[C@@H]2OCC=C3CN4CC[C@]56c7ccccc7N1[C@H]5[C@H]2[C@H]3C[C@H]46 [strychnine, reference compound]
Efficacy = maximal amplitude (ΔF/F) ([1]; mean): 0.2373

Efficacy = maximal amplitude (ΔF/F) ([2]; mean): 0.08257
Efficacy (maximal amplitude ΔF/F), individual data points ([2]; single replicates): 0.09973 and 0.06456 and 0.07602
Compound: CC[N+](CC)(CC(=O)Nc1c(C)cccc1C)Cc1ccccc1 [denatonium benzoate, reference compound]

Compound: COc1cc2c(c(OC)c1OC)-c1ccc(OC)c(=O)cc1[C@@H](NC(C)=O)CC2 [Colchicin]
Efficacy = maximal amplitude (ΔF/F) ([3]; mean): 0.02059
Efficacy (maximal amplitude ΔF/F), individual data points ([3]; single replicates): 0.02499 and 0.02039 and 0.01223

Compound: O=C1C[C@@H]2OCC=C3CN4CC[C@]56c7ccccc7N1[C@H]5[C@H]2[C@H]3C[C@H]46 [Strychnin]
Efficacy (maximal amplitude ΔF/F), individual data points ([1]; single replicates): 0.1901 and 0.2368 and 0.2851

Compound: COc1cccc2c1cc([N+](=O)[O-])c1c(C(=O)O)cc3c(c12)OCO3 [aristolochic acid, reference compound]
Efficacy = maximal amplitude (ΔF/F) ([4]; TAS2R14, positive control at 10 µM, mean): 0.4945
Efficacy (maximal amplitude ΔF/F), individual data points ([4]; TAS2R14, positive control at 10 µM, single replicates): 0.6939 and 0.4242 and 0.3654
Efficacy (signal amplitude) versus control stimulus, TAS2R14 ([4]; highest applied concentrations, control 10 µM aristolochic acid): about twice as high as the most effective bile acids

Compound: C=C(C)[C@@H]1[C@H]2OC(=O)[C@@H]1[C@]1(O)C[C@H]3O[C@]34C(=O)O[C@H]2[C@]14C [picrotoxinin, reference compound]
Efficacy = maximal amplitude (ΔF/F) ([5]; mean): 0.1084
Efficacy (maximal amplitude ΔF/F), individual data points ([5]; single replicates): 0.08063 and 0.1121 and 0.1325
